Laboratory results from patent US10519159B2, “Antiviral aliphatic ester prodrugs of tenofovir” (Merck Sharp & Dohme Corp., priority 2016, dated 2019).
Like-named read-outs stand apart in the source and are kept apart here.

Experiments:
[1] = Prodrug stability assay in bio-relevant media (FaSSIF with pancreatin), GI tract stability; type: in vitro ADME
Method: Prodrug Stability Assay in Bio-Relevant Media
The following assay was employed to evaluate the stability of the prodrugs in simulated gastrointestinal tract conditions. Preparation of fasted state simulated intestinal fluid (FaSSIF) using Phares SIF Powder was carried out according to protocols from Phare Drug Delivery AG (Baselland, Switzerland). For sample preparation, 10 μL stock solutions (10 mM) of prodrug substance in DMSO was added to 990 μL of 0.5 mg/mL Pancreatin solution (Fisher CAS #8049-47-6) in FaSSIF. Two samples were prepared for each compound. If the sample was a clear solution, it was directly analyzed by HPLC. If the sample was not clear, the sample was […], maintained at 37° C. and observed 5 h later. If the sample was clear, HPLC analysis was directly performed. If the sample was still not clear, the sample was diluted with 100% ACN and assayed by HPLC. All the samples were vortexed for 3 min and observed before injection. For the diluted samples, the area is multiplied by a dilution factor when the data is analyzed. The analysis was carried out with an Agilent 1100 series HPLC with autosampler. The column was a Poroshell 120 EC-C18, 4.6×50 mm, 2.7 μm. The flow rate was 1.8 mL/min, and the injection volume was 5 or 10 μL. UV detection was in the range 210-400 nm. The mobile phase consisted of solvent A (water plus 10 mM tetrabutylammonium bromide) and solvent B (acetonitrile) with a gradient of: 90% solvent A at 0 min, changing to 95% solvent B over 6 min, maintaining for 1.5 min, then reverting to 90% solvent A over 1.6 min. The HPLC peak area of the prodrug at 5 h was divided by the HPLC peak area of the prodrug at 0 h, to generate the % claimed parent ratio, which is summarized in Table 1 for gastrointestinal (GI) Tract stability.

HIV-1 (H9/IIIB strain) = test: Multiple round HIV-1 infection assay (Viking assay) in MT4-GFP cells; type: cell-based
Method: Assessing Antiviral Potency in a Multiple Round HIV-1 Infection Assay (Viking Assay)
The antiviral activity of the tenofovir prodrugs of the Examples herein was assessed in an assay that measures the rate of replication of HIV in cell culture, termed the Viking assay (Viral KINetics in Green cells) and performed as follows. HIV-1 replication was monitored using MT4-gag-GFP clone D3 (hereafter designated MT4-GFP), which are MT-4 cells modified to harbor a GFP reporter gene, the expression of which is dependent on the HIV-1 expressed proteins tat and rev. Productive infection of an MT4-GFP cell with HIV-1 results in GFP expression approximately 24 h post-infection. MT4-GFP cells were maintained at 37° C./5% CO2/90% relative humidity in RPMI 1640 supplemented with 10% fetal bovine serum, 100 U/ml penicillin/streptomycin, and 400 μg/ml G418 to maintain the reporter gene. For infections, MT4-GFP cells were placed in the same medium lacking G418 and infected overnight with HIV-1 (H9/IIIB strain) virus at an approximate multiplicity of infection of 0.01 in the same incubation conditions. Cells were then washed and re-suspended in either RPMI 1640 supplemented with 10% or 50% normal human serum (NHS) at 1.6×10^5 cells/mL (10% NHS or 50% NHS, respectively). Compound plates were prepared by dispensing compounds dissolved in DMSO into wells of 384 well poly-D-lysine-coated plates (0.2 μl/well) using an ECHO acoustic dispenser. Each compound was tested in a 10-point serial 3-fold dilution (typical final concentrations: 8.4 μM-0.42 nM). Controls included no inhibitor (DMSO only) and a combination of three antiviral agents (efavirenz, indinavir, an in-house integrase strand transfer inhibitor at final concentrations of 4 μM each). Cells were added (50 μL/well) to compound plates and the infected cells were maintained at 37° C./5% CO2/90% relative humidity.
Infected cells were quantified at two time points, ˜48 h and ˜72 h post-infection, by counting the number of green cells in each well using an Acumen eX3 scanner. The increase in the number of green cells over ˜24 h period gives the reproductive ratio, R0, which is typically 5-15 and has been shown experimentally to be in logarithmic phase (data not shown). Inhibition of R0 is calculated for each well, and IC50s determined by non-linear 4-parameter curve fitting.

[2] = Table 1, % parent: HPLC peak area of prodrug at 5 h / 0 h, 0.5 mg/mL pancreatin in FaSSIF, 37° C.
[3] = Table 1, MT4-GFP cells infected with HIV-1 H9/IIIB, 10% normal human serum, read-out: Viking, IC50 (10% NHS)
[4] = Table 1, MT4-GFP cells infected with HIV-1 H9/IIIB, 50% normal human serum, read-out: Viking, IC50 (50% NHS)
[5] = Human immunodeficiency virus 1, IIIB, Table 2, L-Ala comparison compounds, MT4-GFP cells, HIV-1 H9/IIIB, 10% normal human serum, read-out: Viking, IC50 (10% NHS)
[6] = read-out: Viking, IC50 (10% NHS), Table 1, MT4-GFP cells infected with HIV-1 H9/IIIB, 10% normal human serum
[7] = read-out: Viking, IC50 (50% NHS), Table 1, MT4-GFP cells infected with HIV-1 H9/IIIB, 50% normal human serum

Row | Structure (SMILES) | IC50 (HIV-1 (H9/IIIB strain); [3]) | IC50 (HIV-1 (H9/IIIB strain); [4]) | further results
1 | CC(C)OC(=O)C[C@H](C)OP(=O)(CO[C@H](C)Cn1cnc2c(N)ncnc21)NC(C)(C)C(=O)OC(C)C (single isomer, unassigned) [Example 10A] | 11.4 nM | 71.7 nM | GI Tract stability [1, 2]: 99.75%
2 | CCCOC(=O)C(C)(C)NP(=O)(CO[C@H](C)Cn1cnc2c(N)ncnc21)OCC[C@H](C)C(=O)OC(C)C (single isomer, unassigned) [Example 6A] | 5.54 nM | 15.5 nM | –
3 | CCCSC(=O)C(C)(C)NP(=O)(CO[C@H](C)Cn1cnc2c(N)ncnc21)OCCC(=O)OC(C)C (single isomer, unassigned) [Example 13B] | 99.6 nM | 248 nM | –
4 | CCCOC(=O)C(C)(C)NP(=O)(CO[C@H](C)Cn1cnc2c(N)ncnc21)OCc1cccc(C(=O)OC(C)C)c1 (single isomer, unassigned) [Example 14B] | 16.7 nM | 114 nM | –
5 | CC(C)OC(=O)C[C@H](C)OP(=O)(CO[C@H](C)Cn1cnc2c(N)ncnc21)NC(C)(C)C(=O)OC(C)C (single isomer, unassigned) [Example 10B] | 284 nM | 1070 nM | –
6 | CCOC(=O)C1(CCOP(=O)(CO[C@H](C)Cn2cnc3c(N)ncnc32)NC(C)(C)C(=O)OC(C)C)CC1 (single isomer, unassigned) [Example 4B] | 7.84 nM | 22.7 nM | GI Tract stability [1, 2]: 99.72%
7 | CCCOC(=O)C(C)(C)NP(=O)(CO[C@H](C)Cn1cnc2c(N)ncnc21)OCC[C@H](C)C(=O)OC(C)C (single isomer, unassigned) [Example 6B] | 73.1 nM | 246 nM | –
8 | CCCOC(=O)C(C)(C)N[P@@](=O)(CO[C@H](C)Cn1cnc2c(N)ncnc21)OCc1ccc(F)cc1C(=O)OC(C)C (single isomer, unassigned) [Example 7A] | – | – | IC50 (HIV-1 (H9/IIIB strain); Human immunodeficiency virus 1, IIIB, Table 1, MT4-GFP cells infected with HIV-1 H9/IIIB, 10% normal human serum, read-out: Viking, IC50 (10% NHS)): 107 nM; IC50 (HIV-1 (H9/IIIB strain); Human immunodeficiency virus 1, IIIB, Table 1, MT4-GFP cells infected with HIV-1 H9/IIIB, 50% normal human serum, read-out: Viking, IC50 (50% NHS)): 654 nM
9 | CC(C)OC(=O)[C@@H](C)CCOP(=O)(CO[C@H](C)Cn1cnc2c(N)ncnc21)NC(C)(C)C(=O)OC(C)C (single isomer, unassigned) [Example 5B] | 540 nM | 2220 nM | –
10 | CCCOC(=O)[C@H](C)NP(=O)(CO[C@H](C)Cn1cnc2c(N)ncnc21)OCCC(=O)OC(C)C (stereo partly drawn) [Compound 15B, reference compound] | – | – | IC50 (HIV-1 (H9/IIIB strain); [5]): 340 nM
11 | CCCCCOC(=O)C(C)(C)NP(=O)(CO[C@H](C)Cn1cnc2c(N)ncnc21)OCCC(=O)OC(C)C (single isomer, unassigned) [Example 8A] | 0.92 nM | 11.3 nM | GI Tract stability [1, 2]: 92.12%
12 | CCCOC(=O)C(C)(C)NP(=O)(CO[C@H](C)Cn1cnc2c(N)ncnc21)SCCC(=O)OC(C)C (single isomer, unassigned) [Example 12B] | – | – | GI Tract stability [1, 2]: 54.83%; IC50 (HIV-1 (H9/IIIB strain); [6]): 13 nM; IC50 (HIV-1 (H9/IIIB strain); [7]): 38.6 nM
13 | CCCCCOC(=O)C(C)(C)NP(=O)(CO[C@H](C)Cn1cnc2c(N)ncnc21)OCCC(=O)OC(C)C (single isomer, unassigned) [Example 8B] | 7.59 nM | 49.8 nM | GI Tract stability [1, 2]: 99.59%
14 | CCOC(=O)C1(CCOP(=O)(CO[C@H](C)Cn2cnc3c(N)ncnc32)NC(C)(C)C(=O)OC(C)C)CC1 (single isomer, unassigned) [Example 4A] | 252 nM | 756 nM | –
15 | CC(C)OC(=O)C(C)(C)COP(=O)(CO[C@H](C)Cn1cnc2c(N)ncnc21)NC(C)(C)C(=O)OC(C)C (single isomer, unassigned) [Example 9B] | 8.34 nM | 26.4 nM | GI Tract stability [1, 2]: 98.18%
16 | CCCOC(=O)C(C)(C)NP(=O)(CO[C@H](C)Cn1cnc2c(N)ncnc21)OCCC(=O)OC(C)C (single isomer, unassigned) [Example 1A] | 23.2 nM | 102 nM | –
17 | CCCOC(=O)C(C)(C)NP(=O)(CO[C@H](C)Cn1cnc2c(N)ncnc21)SCCC(=O)OC(C)C (single isomer, unassigned) [Example 12A] | – | – | GI Tract stability [1, 2]: 96.69%; IC50 (HIV-1 (H9/IIIB strain); [6]): 75.4 nM; IC50 (HIV-1 (H9/IIIB strain); [7]): 322 nM
18 | CC(C)OC(=O)C1(COP(=O)(CO[C@H](C)Cn2cnc3c(N)ncnc32)NC(C)(C)C(=O)OC(C)C)CC1 (single isomer, unassigned) [Example 3B] | 16.8 nM | 70.9 nM | –
19 | CCCOC(=O)[C@H](C)NP(=O)(CO[C@H](C)Cn1cnc2c(N)ncnc21)OCC[C@H](C)C(=O)OC(C)C (stereo partly drawn) [Compound 16B, reference compound] | – | – | IC50 (HIV-1 (H9/IIIB strain); [5]): 730 nM
20 | CCCOC(=O)[C@H](C)NP(=O)(CO[C@H](C)Cn1cnc2c(N)ncnc21)OCc1ccc(F)cc1C(=O)OC(C)C (stereo partly drawn) [Compound 17B, reference compound] | – | – | IC50 (HIV-1 (H9/IIIB strain); [5]): 570 nM
21 | CCCOC(=O)C(C)(C)NP(=O)(CO[C@H](C)Cn1cnc2c(N)ncnc21)OCc1cccc(C(=O)OC(C)C)c1 (single isomer, unassigned) [Example 14A] | 1.71 nM | 7.58 nM | GI Tract stability [1, 2]: 96.71%
22 | CCCOC(=O)[C@H](C)NP(=O)(CO[C@H](C)Cn1cnc2c(N)ncnc21)OCC[C@H](C)C(=O)OC(C)C (single isomer, unassigned) [Compound 16A, reference compound] | – | – | GI Tract stability ([1]; Table 2, L-Ala comparison compounds, % parent at 5 h vs 0 h, pancreatin in FaSSIF): 51.3%; IC50 (HIV-1 (H9/IIIB strain); [5]): 213 nM; IC50 (HIV-1 (H9/IIIB strain); Human immunodeficiency virus 1, IIIB, Table 2, L-Ala comparison compounds, MT4-GFP cells, HIV-1 H9/IIIB, 50% normal human serum, read-out: Viking, IC50 (50% NHS)): 1830 nM
23 | CCCOC(=O)C(C)(C)NP(=O)(CO[C@H](C)Cn1cnc2c(N)ncnc21)OCCc1cccc(C(=O)OC(C)C)c1 (single isomer, unassigned) [Example 11B] | 45.8 nM | 302 nM | –
24 | CC(C)OC(=O)C1(COP(=O)(CO[C@H](C)Cn2cnc3c(N)ncnc32)NC(C)(C)C(=O)OC(C)C)CC1 (single isomer, unassigned) [Example 3A] | 88.7 nM | 521 nM | –
25 | CC(C)OC(=O)CCOP(=O)(CO[C@H](C)Cn1cnc2c(N)ncnc21)NC(C)(C)C(=O)OC(C)C (single isomer, unassigned) [Example 2B] | 601 nM | 622 nM | –
26 | CC(C)OC(=O)[C@@H](C)CCOP(=O)(CO[C@H](C)Cn1cnc2c(N)ncnc21)NC(C)(C)C(=O)OC(C)C (single isomer, unassigned) [Example 5A] | 7.52 nM | 33.6 nM | –
27 | CC(C)OC(=O)C(C)(C)COP(=O)(CO[C@H](C)Cn1cnc2c(N)ncnc21)NC(C)(C)C(=O)OC(C)C (single isomer, unassigned) [Example 9A] | 173 nM | 562 nM | –
